Experimental data reported in article PMC7897990, “TriTOX: A novel Trichomonas vaginalis assay platform for high-throughput screening of compound libraries” (International Journal for Parasitology: Drugs and Drug …, 2021).
Where two headings read alike, the source gives them in different places. Starred links: 1 amine or outer side, 2 acyl side, 3 side chain; linkers in the order of their positions; H or OH if unused. Positions of bridges follow the written chain, without caps; N, C: chain ends. Non-standard residues stand in square brackets, D forms with d. Residues, ends and D or L forms follow the SMILES beside them. hTyr(3S-OH,4S-OH,3'-OSO3H) = N[C@H](C(=O)O)[C@H](O)[C@@H](O)c1ccc(O)c(OS(=O)(=O)O)c1; Orn(4R-OH,5R-OH) = O=C([C@H](C[C@@H](O)[C@@H](O)N[*:3])N[*:1])[*:2]; Pro(3S-OH,4S-Me) = C[C@H]1CN[C@H](C(=O)O)[C@H]1O; Gln(3R-OH) = NC(=O)C[C@@H](O)[C@H](N)C(=O)O; Hyp = O=C(O)[C@@H]1C[C@@H](O)CN1

How the values were obtained:
[1] = tested on: nontumorigenic neonatal foreskin fibroblast (NFF) cell line
[2] = tested on: Trichomonas vaginalis G3 trophozoites
[3] = NFF_NS1 screen 5 µg/mL, single concentration
[4] = HTS single concentration, parasite screen 1 µg/mL, replicate 1
[5] = HTS single concentration, parasite screen 1 µg/mL, replicate 2
[6] = replicate 1, parasite screen at 1 µg/mL
[7] = replicate 2, parasite screen at 1 µg/mL
[8] = NFF_NS1 screen at 5 µg/mL, NFF cells
[9] = parasite screen at 1 µg/mL, replicate 1
[10] = parasite screen at 1 µg/mL, replicate 2
[11] = HTS, parasite screen at 1 µg/mL, replicate 1
[12] = HTS, parasite screen at 1 µg/mL, replicate 1, raw absorbance
[13] = HTS, parasite screen at 1 µg/mL, replicate 2
[14] = HTS, parasite screen at 1 µg/mL, replicate 2, raw absorbance
[15] = NFF fibroblasts, single concentration 5 µg/mL
[16] = HTS replicate 1, parasite screen 1 µg/mL
[17] = HTS replicate 2, parasite screen 1 µg/mL

Cc1c2c(c(O)c3c(O)ccc(Cl)c13)C(=O)[C@]1(O)C(O)=C(C(N)=O)C(=O)[C@@H](N(C)C)[C@@H]1C2.Cl [BIA-A1552]
NFF_Activity [1, 3]: I (otherwise these were reported as inactive (I)) | T.vaginalis_%inb_Rep1 [2, 4]: 13.30% | T.vaginalis_%inb_Rep2 [2, 5]: 11.71%

CO[C@H]1C[C@H](O[C@H]2[C@H](C)O[C@@H](O[C@@H]3/C(C)=C/C[C@@H]4C[C@@H](C[C@]5(CC[C@H](C)[C@@H](C(C)C)O5)O4)OC(=O)[C@@H]4C=C(C)[C@@H](O)[C@H]5OC/C(=C\C=C\[C@@H]3C)[C@]54O)C[C@@H]2OC)O[C@@H](C)[C@@H]1O [BIA-I1117]
NFF_Activity ([1]; NFF cells, screen at 5 µg/mL): I (otherwise these were reported as inactive (I)) | T.vaginalis_%inb_Rep1 [2, 6]: 14.71% | T.vaginalis_%inb_Rep2 [2, 7]: 14.82%

CC(C=CC1OC(=O)C=CC1C)=CC(C)CC=CC(C)=CC(C)C(=O)C(C)C(O)C(C)CC(C)=CC(=O)O (stereo not drawn) [BIA-L1045]
NFF_Activity ([1]; NFF cells, screen at 5 µg/mL): A (active (A) compounds having >25% inhibitory activity) | T.vaginalis_%inb_Rep1 [2, 6]: 3.96% | T.vaginalis_%inb_Rep2 [2, 7]: 1.86%

COC(=O)C1=CO[C@@H](C)[C@@H]2CN3CCc4c([nH]c5cc(OC)c(OC)cc45)[C@H]3C[C@H]12 [BIA-R1946]
NFF_Activity [1, 8]: I (otherwise these were reported as inactive (I)) | T.vaginalis_%inb_Rep1 [2, 9]: 11.06% | T.vaginalis_%inb_Rep2 [2, 10]: 13.59%

COC(=O)C1=CO[C@@H](C)[C@@H]2CN3CCc4c([nH]c5cc(OC)c(OC)cc45)[C@@H]3C[C@H]12 [BIA-I1957]
NFF_Activity ([1]; NFF cells, screen at 5 µg/mL): I (otherwise these were reported as inactive (I)) | T.vaginalis_%inb_Rep1 [2, 6]: 9.33% | T.vaginalis_%inb_Rep2 [2, 7]: 14.44%

CC(=O)OC[C@]12[C@H](O)C(=O)C(C)=C[C@H]1O[C@@H]1[C@H](O)C[C@@]2(C)[C@]12CO2 [BIA-A1922]
NFF_Activity [1, 3]: I (otherwise these were reported as inactive (I)) | T.vaginalis_%inb_Rep1 [2, 4]: 7.13% | T.vaginalis_%inb_Rep2 [2, 5]: 15.54%

C[C@@H](O)[C@@H]1NC(=O)[C@@H](N)C[C@@H](O)[C@@H](O)NC(=O)[C@@H]2[C@@H](O)[C@@H](C)CN2C(=O)[C@H]([C@H](O)CC(N)=O)NC(=O)[C@H]([C@H](O)[C@@H](O)c2ccc(O)c(OS(=O)(=O)O)c2)NC(=O)[C@@H]2C[C@@H](O)CN2C1=O [FR 179642] (H-[Orn(4R-OH,5R-OH)]T[Hyp][hTyr(3S-OH,4S-OH,3'-OSO3H)][Gln(3R-OH)][Pro(3S-OH,4S-Me)]; lactam 1-C)
NFF_Activity ([1]; NFF_NS1 screen at 5 µg/mL): I (otherwise these were reported as inactive (I)) | T.vaginalis_%inb_Rep1 [2, 11]: 12.98% | T.vaginalis_Absorbance_Rep1 [2, 12]: 0.95 | T.vaginalis_%inb_Rep2 [2, 13]: 14.17% | T.vaginalis_Absorbance_Rep2 [2, 14]: 0.816

CCC[C@H](O)C[C@@H]1CC[C@H](C)CCCCC(=O)N(C)[C@@H](Cc2ccc(OCCO)cc2)C(=O)O1 [PF1163A]
NFF_Activity [1, 15]: I (otherwise these were reported as inactive (I)) | T.vaginalis_%inb_Rep1 [2, 16]: 11.61% | T.vaginalis_%inb_Rep2 [2, 17]: 10.39%

Cc1cccc(O)c1C(=O)O [BIA-M1655]
NFF_Activity ([1]; NFF cells, screen at 5 µg/mL): I (otherwise these were reported as inactive (I)) | T.vaginalis_%inb_Rep1 [2, 6]: 11.00% | T.vaginalis_%inb_Rep2 [2, 7]: 14.69%

COc1cc(O)c2c(c1)C=CCC(O)C(O)C(=O)C=CCC(C)OC2=O (stereo not drawn) [BIA-L1160]
NFF_Activity ([1]; NFF cells, screen at 5 µg/mL): I (otherwise these were reported as inactive (I)) | T.vaginalis_%inb_Rep1 [2, 6]: 12.27% | T.vaginalis_%inb_Rep2 [2, 7]: 12.76%

COc1cc(C)c2c(OC)cc(=O)oc2c1-c1c(OC)cc(C)c2c(OC)cc(=O)oc12 [BIA-K1634]
NFF_Activity ([1]; NFF cells, screen at 5 µg/mL): I (otherwise these were reported as inactive (I)) | T.vaginalis_%inb_Rep1 [2, 6]: 14.30% | T.vaginalis_%inb_Rep2 [2, 7]: 13.02%

CC[C@H]1/C=C/C=C/C[C@@H](C)[C@H](O)[C@@](C)(O)C(=O)[C@@H](C)[C@H](O)[C@@H](C)C(=O)[C@@H](C)[C@H](O)[C@@H](C)/C=C/C(=O)O[C@@H]2[C@H](C)[C@H](CC1)O[C@@]1(O[C@@H](C[C@@H](C)O)[C@@H](C)CC1=O)[C@]2(C)O [Oligomycin E]
NFF_Activity [1]: I (key: active (A) compounds having >25% inhibitory activity; otherwise these were reported as inactive (I)) | T.vaginalis_%inb_Rep1 [2, 16]: 14.66% | T.vaginalis_%inb_Rep2 [2, 17]: 15.07%

CCCCCC[C@H]1C(=O)O[C@H](C)[C@@H](O)/C=C/C=C/C=C/C=C/C=C(\C)[C@@H](O)C[C@H](O)C[C@H](O)C[C@H](O)C[C@H](O)C[C@H](O)C[C@@H]1O [Filipin II]
NFF_Activity ([1]; NFF_NS1 screen at 5 µg/mL): I (otherwise these were reported as inactive (I)) | T.vaginalis_%inb_Rep1 [2, 11]: 13.79% | T.vaginalis_Absorbance_Rep1 [2, 12]: 0.965 | T.vaginalis_%inb_Rep2 [2, 13]: 25.09% | T.vaginalis_Absorbance_Rep2 [2, 14]: 0.967

CC[C@@H](C)/C=C(C)/C=C/C(=O)c1c(O)c(-c2ccc(O)cc2)cn(O)c1=O [BIA-T1566]
NFF_Activity [1, 8]: I (otherwise these were reported as inactive (I)) | T.vaginalis_%inb_Rep1 [2, 9]: 8.55% | T.vaginalis_%inb_Rep2 [2, 10]: 14.93%

CCC(=O)Nc1c2sscc-2n(C)c1=O [BIA-A1120]
NFF_Activity [1, 3]: A (active (A) compounds having >25% inhibitory activity) | T.vaginalis_%inb_Rep1 [2, 4]: 100.00% | T.vaginalis_%inb_Rep2 [2, 5]: 82.07%

CC[C@H]1OC(=O)[C@H](C)[C@@H](O[C@H]2C[C@@](C)(OC)[C@@H](O)[C@H](C)O2)[C@H](C)[C@@H](O[C@@H]2O[C@H](C)C[C@H](N(C)C)[C@H]2O)[C@](C)(O)C[C@@H](C)C(=NO)[C@H](C)[C@@H](O)[C@]1(C)O [Erythromycin A oxime]
NFF_Activity ([1]; NFF_NS1 screen at 5 µg/mL): I (otherwise these were reported as inactive (I)) | T.vaginalis_%inb_Rep1 [2, 11]: 3.82% | T.vaginalis_Absorbance_Rep1 [2, 12]: 0.78 | T.vaginalis_%inb_Rep2 [2, 13]: 4.19% | T.vaginalis_Absorbance_Rep2 [2, 14]: 0.678

C[C@@H]1CCC[C@H](O)CCC/C=C/c2cc(O)cc(O)c2C(=O)O1 [Zearalenol, beta-]
NFF_Activity ([1]; NFF fibroblast screen at 5 µg/mL, A = active, I = inactive): I (otherwise these were reported as inactive (I)) | T.vaginalis_%inb_Rep1 [2, 11]: 9.54% | T.vaginalis_%inb_Rep2 [2, 13]: 15.05%

C=C(C)C1CCC2(C)CCC3(C)C(CCC4C5(C)CCC(O)C(C)(C)C5CCC43C)C12 (stereo not drawn) [BIA-L1759]
NFF_Activity ([1]; NFF cells, screen at 5 µg/mL): I (otherwise these were reported as inactive (I)) | T.vaginalis_%inb_Rep1 [2, 6]: 12.73% | T.vaginalis_%inb_Rep2 [2, 7]: 12.70%

COC1=C(N)C(=O)c2nc(-c3nc(C(=O)O)c(C)c(-c4ccc(OC)c(OC)c4O)c3N)ccc2C1=O [BIA-S1107]
NFF_Activity [1, 8]: A (active (A) compounds having >25% inhibitory activity) | T.vaginalis_%inb_Rep1 [2, 9]: 76.72% | T.vaginalis_%inb_Rep2 [2, 10]: 90.80%

Eprinomectin
NFF_Activity ([1]; NFF_NS1 screen at 5 µg/mL): I (otherwise these were reported as inactive (I)) | T.vaginalis_%inb_Rep1 [2, 11]: 12.49% | T.vaginalis_Absorbance_Rep1 [2, 12]: 0.941 | T.vaginalis_%inb_Rep2 [2, 13]: 15.33% | T.vaginalis_Absorbance_Rep2 [2, 14]: 0.832

CC[C@H](C)[C@H]1O[C@]2(CC[C@@H]1C)C[C@@H]1C[C@@H](C/C=C(\C)[C@@H](O[C@H]3C[C@H](OC)[C@@H](O[C@H]4C[C@H](OC)[C@@H](O)[C@H](C)O4)[C@H](C)O3)[C@@H](C)/C=C/C=C3\CO[C@@H]4[C@H](O)C(C)C=C(C(=O)O1)[C@]34O)O2 (stereo partly drawn) [BIA-I1581]
NFF_Activity ([1]; NFF cells, screen at 5 µg/mL): I (otherwise these were reported as inactive (I)) | T.vaginalis_%inb_Rep1 [2, 6]: 13.44% | T.vaginalis_%inb_Rep2 [2, 7]: 13.34%

CN(C)[C@@H]1C(O)=C(C(=O)NCN2CCCC2)C(=O)[C@@]2(O)C(O)=C3C(=O)c4c(O)cccc4[C@@](C)(O)[C@H]3C[C@@H]12 [BIA-R1460]
NFF_Activity [1, 8]: I (otherwise these were reported as inactive (I)) | T.vaginalis_%inb_Rep1 [2, 9]: 13.95% | T.vaginalis_%inb_Rep2 [2, 10]: 12.12%

Pladienolide B
NFF_Activity [1, 15]: I (otherwise these were reported as inactive (I)) | T.vaginalis_%inb_Rep1 [2, 16]: 11.92% | T.vaginalis_%inb_Rep2 [2, 17]: 13.15%

Diacetoxyscirpenol
NFF_Activity [1]: I (key: active (A) compounds having >25% inhibitory activity; otherwise these were reported as inactive (I)) | T.vaginalis_%inb_Rep1 [2]: 8.29% | T.vaginalis_%inb_Rep2 [2]: 9.08% | T.vaginalis_Absorbance_Rep1 [2]: 0.923 | T.vaginalis_Absorbance_Rep2 [2]: 0.786

C=C1[C@@H](C)[C@H]2[C@H](Cc3ccccc3)NC(=O)[C@]23[C@H](OC(C)=O)[C@@H]2O[C@H]2[C@@](C)(O)C(=O)[C@@H](C)C/C=C\[C@H]3[C@@H]1O [Epoxycytochalasin D, 19,20-]
NFF_Activity ([1]; NFF_NS1 screen at 5 µg/mL): I (otherwise these were reported as inactive (I)) | T.vaginalis_%inb_Rep1 [2, 11]: 12.71% | T.vaginalis_Absorbance_Rep1 [2, 12]: 0.945 | T.vaginalis_%inb_Rep2 [2, 13]: 12.22% | T.vaginalis_Absorbance_Rep2 [2, 14]: 0.789

Nargenicin
NFF_Activity [1, 15]: I (otherwise these were reported as inactive (I)) | T.vaginalis_%inb_Rep1 [2, 16]: 10.70% | T.vaginalis_%inb_Rep2 [2, 17]: 13.02%

O=C1C=C2C=C[C@@H]3C[C@@]2(O1)[C@H]1CCCCN31 [BIA-S1947]
NFF_Activity [1, 8]: I (otherwise these were reported as inactive (I)) | T.vaginalis_%inb_Rep1 [2, 9]: 7.81% | T.vaginalis_%inb_Rep2 [2, 10]: 10.30%
